Values of other authors, collected in US4127541A, “Novel decapeptides, intermediates therefor, and compositions and methods employing said decapeptides” (priority 1977, dated 1978).

Columns and labels:
[1] = test system: brain opiate receptor sites
[2] = injected directly into the brain of the rat

H-Tyr-Gly-Gly-Phe-Met-OH [methionine enkephalin]
binding to partially purified brain opiate receptor sites [1]: binds stereo-specifically
analgesic activity [2]: weak analgesic agent of short duration
